Test results taken from PMC6934184, “Selective DNA-PKcs inhibition extends the therapeutic index of localized radiotherapy and chemotherapy” (The Journal of Clinical Investigation, 2019).

Molecular target: T1, FGFR2 (Homo sapiens, UniProt P21802)
T1 construct: purchased Thermo Fisher Scientific (Life Technologies) SelectScreen
Assay: SelectScreen Z'LYTE
Format: biochemical
Summary of the method: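 NU5455 was profiled across the SelectScreen Broad panel of kinase activity and binding assays. Z'LYTE reactions such as CSF1R ran at apparent Km ATP, while the Adapta CAMK1 assay used ATP listed as 10. Values are given as percent.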

T1 sequence (P21802 22-821): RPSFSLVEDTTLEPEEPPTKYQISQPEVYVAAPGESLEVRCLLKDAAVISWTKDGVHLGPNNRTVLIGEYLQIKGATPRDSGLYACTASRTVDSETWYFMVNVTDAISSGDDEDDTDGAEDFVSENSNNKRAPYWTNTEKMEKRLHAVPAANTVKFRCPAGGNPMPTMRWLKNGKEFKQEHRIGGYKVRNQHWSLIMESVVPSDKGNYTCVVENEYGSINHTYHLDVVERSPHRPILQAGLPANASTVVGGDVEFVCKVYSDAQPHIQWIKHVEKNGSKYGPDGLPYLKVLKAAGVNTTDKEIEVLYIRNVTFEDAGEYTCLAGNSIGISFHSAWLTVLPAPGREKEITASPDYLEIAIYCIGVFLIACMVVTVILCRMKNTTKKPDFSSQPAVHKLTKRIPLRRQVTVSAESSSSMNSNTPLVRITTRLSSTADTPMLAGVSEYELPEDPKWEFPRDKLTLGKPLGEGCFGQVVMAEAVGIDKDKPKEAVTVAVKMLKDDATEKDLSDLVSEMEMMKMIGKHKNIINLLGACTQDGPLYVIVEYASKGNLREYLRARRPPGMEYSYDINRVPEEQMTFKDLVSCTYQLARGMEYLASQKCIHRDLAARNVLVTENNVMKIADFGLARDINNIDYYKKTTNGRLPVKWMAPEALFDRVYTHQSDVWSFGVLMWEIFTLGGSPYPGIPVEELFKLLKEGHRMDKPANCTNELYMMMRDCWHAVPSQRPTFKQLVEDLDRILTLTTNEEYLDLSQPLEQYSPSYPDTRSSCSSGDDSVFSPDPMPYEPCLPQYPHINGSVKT

## CN(C(=O)CN1CCOCC1)c1ccc2sc3c(-c4cccc5c(=O)cc(N6CC7CCC(C6)O7)oc45)cccc3c2c1 [NU5455]
  inhibition at 1 µM: 0%
